Data reported in the kinase profiling compilation of Christmann-Franck et al. (2016).

Key:
Assay in all cases: radiometric filter-binding kinase assay, Kinaseprofiler
[1] = target: FES (human) (UniProt P07332)
[2] = target: FGFR3 (human) (UniProt P22607)
[3] = target: FLT4 (human) (UniProt P35916)
[4] = target: MERTK (human) (UniProt Q12866)
Sequence of MERTK (human) (Q12866 whole entry, looked up): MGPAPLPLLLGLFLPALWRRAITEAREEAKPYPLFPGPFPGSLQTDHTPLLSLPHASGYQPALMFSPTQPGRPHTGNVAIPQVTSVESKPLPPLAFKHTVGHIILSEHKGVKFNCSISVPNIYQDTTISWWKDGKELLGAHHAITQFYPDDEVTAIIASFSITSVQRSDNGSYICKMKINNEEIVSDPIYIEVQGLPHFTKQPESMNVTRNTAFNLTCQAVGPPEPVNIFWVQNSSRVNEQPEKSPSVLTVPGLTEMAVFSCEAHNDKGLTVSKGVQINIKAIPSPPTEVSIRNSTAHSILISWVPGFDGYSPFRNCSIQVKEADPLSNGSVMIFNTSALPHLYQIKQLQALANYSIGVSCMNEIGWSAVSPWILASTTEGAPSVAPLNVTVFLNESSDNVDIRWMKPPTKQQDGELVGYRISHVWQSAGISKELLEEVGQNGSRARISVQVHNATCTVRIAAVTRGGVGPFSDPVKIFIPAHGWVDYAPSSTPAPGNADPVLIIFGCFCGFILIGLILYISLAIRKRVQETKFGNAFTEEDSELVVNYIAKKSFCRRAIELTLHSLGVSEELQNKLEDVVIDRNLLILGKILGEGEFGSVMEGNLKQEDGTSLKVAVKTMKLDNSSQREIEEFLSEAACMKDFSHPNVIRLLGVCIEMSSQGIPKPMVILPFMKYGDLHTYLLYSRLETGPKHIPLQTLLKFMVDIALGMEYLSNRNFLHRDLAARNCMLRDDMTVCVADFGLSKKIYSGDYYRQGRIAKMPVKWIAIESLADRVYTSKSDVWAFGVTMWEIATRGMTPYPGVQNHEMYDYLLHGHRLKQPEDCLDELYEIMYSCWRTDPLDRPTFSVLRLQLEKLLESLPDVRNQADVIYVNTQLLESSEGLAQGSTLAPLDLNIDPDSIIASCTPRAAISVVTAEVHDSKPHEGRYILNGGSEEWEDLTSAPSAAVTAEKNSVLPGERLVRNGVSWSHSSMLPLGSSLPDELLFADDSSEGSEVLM

Sequence of FLT4 (human) (P35916 whole entry, looked up): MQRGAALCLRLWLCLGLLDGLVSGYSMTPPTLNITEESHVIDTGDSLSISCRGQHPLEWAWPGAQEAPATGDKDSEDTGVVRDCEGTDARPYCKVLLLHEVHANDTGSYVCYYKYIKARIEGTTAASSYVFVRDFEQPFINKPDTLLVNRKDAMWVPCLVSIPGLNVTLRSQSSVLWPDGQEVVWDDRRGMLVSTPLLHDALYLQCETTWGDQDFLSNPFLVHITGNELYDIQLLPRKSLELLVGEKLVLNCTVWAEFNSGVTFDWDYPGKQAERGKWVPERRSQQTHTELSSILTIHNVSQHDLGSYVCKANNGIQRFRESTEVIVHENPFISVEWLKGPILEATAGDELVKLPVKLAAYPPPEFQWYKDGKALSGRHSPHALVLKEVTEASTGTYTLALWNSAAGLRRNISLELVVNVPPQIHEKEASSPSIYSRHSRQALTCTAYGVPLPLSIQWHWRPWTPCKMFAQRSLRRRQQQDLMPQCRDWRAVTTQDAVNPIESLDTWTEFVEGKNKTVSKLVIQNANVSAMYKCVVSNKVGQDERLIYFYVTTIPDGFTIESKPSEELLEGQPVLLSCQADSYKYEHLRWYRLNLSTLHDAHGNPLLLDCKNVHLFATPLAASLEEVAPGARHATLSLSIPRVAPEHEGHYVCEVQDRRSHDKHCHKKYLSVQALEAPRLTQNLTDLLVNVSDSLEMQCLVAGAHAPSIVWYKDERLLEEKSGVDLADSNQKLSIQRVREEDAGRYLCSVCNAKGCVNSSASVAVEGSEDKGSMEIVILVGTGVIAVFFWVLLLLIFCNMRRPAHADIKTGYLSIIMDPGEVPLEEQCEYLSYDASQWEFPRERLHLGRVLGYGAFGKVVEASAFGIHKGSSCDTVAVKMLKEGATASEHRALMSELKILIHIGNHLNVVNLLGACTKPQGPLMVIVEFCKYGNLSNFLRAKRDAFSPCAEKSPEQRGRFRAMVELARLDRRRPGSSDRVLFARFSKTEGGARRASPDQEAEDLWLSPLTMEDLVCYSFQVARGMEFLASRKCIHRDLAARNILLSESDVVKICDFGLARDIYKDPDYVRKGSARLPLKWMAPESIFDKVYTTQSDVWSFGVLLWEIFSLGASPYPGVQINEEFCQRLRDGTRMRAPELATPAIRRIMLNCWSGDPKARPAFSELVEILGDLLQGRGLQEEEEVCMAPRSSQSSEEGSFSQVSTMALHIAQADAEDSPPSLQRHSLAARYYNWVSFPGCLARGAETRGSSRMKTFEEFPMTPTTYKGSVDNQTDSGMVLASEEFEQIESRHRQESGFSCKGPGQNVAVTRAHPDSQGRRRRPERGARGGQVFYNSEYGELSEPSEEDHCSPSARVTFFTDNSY
Sequence of FES (human) (P07332 whole entry, looked up): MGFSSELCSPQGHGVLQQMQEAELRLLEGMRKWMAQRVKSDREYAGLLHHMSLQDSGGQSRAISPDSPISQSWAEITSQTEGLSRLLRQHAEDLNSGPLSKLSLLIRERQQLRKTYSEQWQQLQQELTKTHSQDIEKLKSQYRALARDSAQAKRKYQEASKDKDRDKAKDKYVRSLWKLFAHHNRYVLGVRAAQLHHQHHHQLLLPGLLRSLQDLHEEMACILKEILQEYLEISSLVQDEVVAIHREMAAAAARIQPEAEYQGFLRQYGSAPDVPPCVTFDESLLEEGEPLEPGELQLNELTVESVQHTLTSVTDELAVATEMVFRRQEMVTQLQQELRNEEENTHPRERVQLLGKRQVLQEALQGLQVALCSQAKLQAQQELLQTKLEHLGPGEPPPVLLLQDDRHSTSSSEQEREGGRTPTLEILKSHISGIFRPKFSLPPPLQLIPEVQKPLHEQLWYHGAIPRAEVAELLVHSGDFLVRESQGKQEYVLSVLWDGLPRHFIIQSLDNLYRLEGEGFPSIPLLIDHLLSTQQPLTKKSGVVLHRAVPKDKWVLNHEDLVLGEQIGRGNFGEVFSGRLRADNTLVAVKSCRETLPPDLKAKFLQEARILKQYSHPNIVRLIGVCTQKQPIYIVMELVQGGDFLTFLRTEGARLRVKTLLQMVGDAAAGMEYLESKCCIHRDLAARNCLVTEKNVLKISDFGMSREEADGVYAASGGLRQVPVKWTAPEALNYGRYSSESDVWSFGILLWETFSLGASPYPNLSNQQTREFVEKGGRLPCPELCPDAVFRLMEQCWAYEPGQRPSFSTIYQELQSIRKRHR
Sequence of FGFR3 (human) (P22607 whole entry, looked up): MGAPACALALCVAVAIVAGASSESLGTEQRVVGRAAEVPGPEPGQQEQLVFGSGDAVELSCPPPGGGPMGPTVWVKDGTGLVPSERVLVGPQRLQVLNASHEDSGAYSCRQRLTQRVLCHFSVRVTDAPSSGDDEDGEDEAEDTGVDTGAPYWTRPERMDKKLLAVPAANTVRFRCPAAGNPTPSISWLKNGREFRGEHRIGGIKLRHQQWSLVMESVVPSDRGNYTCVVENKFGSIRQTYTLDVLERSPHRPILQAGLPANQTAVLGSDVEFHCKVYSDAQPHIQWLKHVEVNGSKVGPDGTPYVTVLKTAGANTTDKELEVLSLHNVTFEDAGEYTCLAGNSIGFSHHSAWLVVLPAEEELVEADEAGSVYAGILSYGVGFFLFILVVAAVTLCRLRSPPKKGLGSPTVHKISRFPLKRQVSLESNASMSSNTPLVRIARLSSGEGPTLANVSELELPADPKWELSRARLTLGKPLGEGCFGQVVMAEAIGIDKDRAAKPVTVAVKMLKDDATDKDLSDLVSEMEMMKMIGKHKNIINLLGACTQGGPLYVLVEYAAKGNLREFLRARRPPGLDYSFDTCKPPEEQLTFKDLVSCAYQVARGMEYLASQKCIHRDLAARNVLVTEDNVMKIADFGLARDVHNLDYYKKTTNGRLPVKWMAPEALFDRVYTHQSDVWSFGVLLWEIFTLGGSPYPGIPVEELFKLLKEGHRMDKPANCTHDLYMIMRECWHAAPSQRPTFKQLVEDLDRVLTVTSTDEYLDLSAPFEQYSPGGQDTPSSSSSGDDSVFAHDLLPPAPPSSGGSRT

IC50 [1]: > 10000 nM | IC50 [2]: 1000 nM | IC50 [3]: 920 nM | IC50 [4]: 880 nM
SMILES: Cn1cc(-c2cnc3ccc4ccc(CS(=O)(=O)NCc5ccccn5)cc4c(=O)c3c2)cn1
